Consider 9 compounds from US7018981B2, “Cyclic motilin receptor antagonists” (Chugai Seiyaku Kabushiki Kaisha, priority 2000, dated 2006).

Where a SMILES comes first, the peptide text is derived from it. Bridges are numbered along the chain shown (N, C = ends). [ ]: non-standard residue; d: D form. NMeTyr(3-tBu) = CN[C@@H](Cc1ccc(O)c(C(C)(C)C)c1)C(=O)O; Tyr(3-tBu) = CC(C)(C)c1cc(C[C@H](N)C(=O)O)ccc1O; Phe(4-F) = N[C@@H](Cc1ccc(F)cc1)C(=O)O; NMeLys(Me) = CNCCCC[C@H](NC)C(=O)O; NMeK = CN[C@@H](CCCCN)C(=O)O; GABA = NCCCC(=O)O; βAla = NCCC(=O)O

In experiment [1] the test system is motilin-induced contraction of a sample of the longitudinal muscle of the duodenum. The experiment is described as follows: Contraction inhibition test: motilin-induced contraction of rabbit longitudinal duodenal muscle. It is filed as cell-based. To be noted: Oryctolagus cuniculus; concentration-dependent contraction induced by motilin; rabbit duodenal specimen in Krebs solution at 28° C.; read-out: Contraction inhibition test pA2 (converted). As for the experimental part: The effect of compounds of the present invention on motilin-induced contraction of a sample of the longitudinal muscle of the duodenum extracted from a rabbit was tested as follows.
A duodenal specimen (5×15 mm) extracted from a killed rabbit was suspended in the direction of the longitudinal muscle in an incubator at 28° C. filled with Krebs solution (10 ml organ bath). A mixed gas (95% O2, 5% CO2) was continuously passed through the Krebs solution and the contraction of the duodenal specimen was isotonically recorded (under a load of 1 g) via an isotonic transducer (ME-3407, ME Commercial, Tokyo, Japan). The extent of contraction of the duodenal specimen was expressed as a percentage to the contraction induced by acetylcholine at a concentration of 10^−4 M.
The effect of the compounds synthesized in Examples 1–8 and 10 on the concentration-dependent contraction induced by motilin added into the incubator was determined to calculate pA2 (see “Drug receptors” edited by Takayanagi, published by Nanzando). As a comparative example, the results of the compound of formula (5) are also shown.

Experiment [2] addresses T1, motilin receptors (Oryctolagus cuniculus, UniProt G1T803).
T1 construct: A protein solution was prepared by homogenizing the duodenum isolated from a killed rabbit; from tissue; host or cells: rabbit duodenum, mucosa stripped, homogenate
The experiment is described as follows: Motilin receptor binding test (125I motilin, rabbit duodenum protein solution). To be noted: concentration inhibiting 50% of specific binding of 25 pM 125I motilin; rabbit duodenum homogenate, 2 hours at 25° C. As for the experimental part:
Motilin receptor binding activities of compounds of the present invention were tested as follows [Vantrappen et al., Regul.
A protein solution was prepared by homogenizing the duodenum isolated from a killed rabbit in 50 mM Tris after stripping the mucosa. […] The difference between the radioactivity of the protein solution incubated alone and the radioactivity of the protein solution incubated with a large excess of motilin (10^−7 M) was recorded as specific binding of motilin to motilin receptors.

T1 sequence (G1T803 1-400): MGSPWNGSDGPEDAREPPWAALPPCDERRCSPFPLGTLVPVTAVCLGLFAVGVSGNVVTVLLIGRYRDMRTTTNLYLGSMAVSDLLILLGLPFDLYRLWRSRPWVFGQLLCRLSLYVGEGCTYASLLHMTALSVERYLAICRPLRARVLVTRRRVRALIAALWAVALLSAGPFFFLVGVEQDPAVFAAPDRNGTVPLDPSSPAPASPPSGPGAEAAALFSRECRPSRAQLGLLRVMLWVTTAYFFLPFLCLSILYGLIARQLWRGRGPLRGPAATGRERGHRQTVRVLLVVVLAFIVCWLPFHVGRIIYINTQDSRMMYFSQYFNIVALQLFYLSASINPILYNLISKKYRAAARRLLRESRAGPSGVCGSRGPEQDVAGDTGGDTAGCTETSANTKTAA

One may read the IC50 as the concentration that gives 50% inhibition. Turning to `CN(C(=O)[C@@H](N)Cc1ccc(F)cc1)[C@H]1CCCCNC(=O)CCCNC(=O)[C@H](Cc2ccc(O)c(C(C)(C)C)c2)NC1=O` [Example 6, (2S-(2S,14S))-2-amino-N-(2-(3-tert-butyl-4-hydroxyphenylmethyl)-1,4,9-triaza-3,8,15-trioxocyclopentadec-14-yl)-3-(4-fluorophenyl)-N-methylpropionamide] (H-[Phe(4-F)][NMeK][Tyr(3-tBu)][GABA]; lactam 2-C), the Kb in experiment [1] is 3.16 nM. In experiment [2], this compound yielded an IC50 of 0.87 nM.

Regarding `CN(C(=O)[C@@H](N)Cc1ccc(F)cc1)[C@H]1CCCCNC(=O)CCNC(=O)[C@H](Cc2ccc(O)c(C(C)(C)C)c2)N(C)C1=O` [Example 2, (2S-(2S.13S))-2-amino-N-(2-(3-tert-butyl-4-hydroxyphenylmethyl)-1-methyl-1,4,8-triaza-3,7,14-trioxocyclotetradec-13-yl)-3-(4-fluorophenyl)-N-methylpropionamide] (H-[Phe(4-F)][NMeK][NMeTyr(3-tBu)][βAla]; lactam 2-C), the Kb in experiment [1] is 1.26 nM. The IC50 in experiment [2] came out at 1.4 nM.

With `CN1CCC(=O)NCCCC[C@H](N(C)C(=O)[C@@H](N)Cc2ccc(F)cc2)C(=O)N[C@@H](Cc2ccc(O)c(C(C)(C)C)c2)C1=O` [Example 4, (2S-(2S,13S))-2-amino-N-(2-(3-tert-butyl-4-hydroxyphenylmethyl)-4-methyl-1,4,8-triaza-3,7,14-trioxocyclotetradec-13-yl)-3-(4-fluorophenyl)-N-methylpropionamide], the Kb in experiment [1] is 1 nM. Further, the IC50 in experiment [2] worked out at 0.78 nM.

Consider `CN1CCCC[C@H](N(C)C(=O)[C@@H](N)Cc2ccc(F)cc2)C(=O)N[C@@H](Cc2ccc(O)c(C(C)(C)C)c2)C(=O)NCCC1=O` [Example 5, (2S-(2S,13S))-2-amino-N-(2-(3-tert-butyl-4-hydroxyphenylmethyl)-8-methyl-1,4,8-triaza-3,7,14-trioxocyclotetradec-13-yl)-3-(4-fluorophenyl)-N-methylpropionamide] (H-[Phe(4-F)][NMeLys(Me)][Tyr(3-tBu)][βAla]; lactam 2-C), for which, in experiment [1], the Kb is 0.126 nM. In experiment [2], this compound gave an IC50 of 1.4 nM.

Consider `CN(C(=O)[C@@H](N)Cc1ccc(F)cc1)[C@H]1CCCCNC(=O)CNC(=O)[C@H](Cc2ccc(O)c(C(C)(C)C)c2)NC1=O` [Example 3, (2S-(2S,12S))-2-amino-N-(2-(3-tert-butyl-4-hydroxyphenylmethyl)-1,4,8-triaza-3,7,13-trioxocyclotridec-12-yl)-3-(4-fluorophenyl)-N-methylpropionamide] (H-[Phe(4-F)][NMeK][Tyr(3-tBu)]G; lactam 2-C), for which the Kb in experiment [1] is 6.31 nM. For the same compound, the IC50 in experiment [2] amounted to 0.52 nM.

With `CN(C(=O)[C@@H](N)Cc1ccc(F)cc1)[C@H]1CCCCNC(=O)CCNC(=O)[C@H](Cc2ccc(O)c(C(C)(C)C)c2)NC1=O` [Example 1, (2S-(2S,13S))-2-amino-N-(2-(3-tert-butyl-4-hydroxyphenylmethyl)-1,4,8-triaza-3,7,14-trioxocyclotetradec-13-yl)-3-(4-fluorophenyl)-N-methylpropionamide] (H-[Phe(4-F)][NMeK][Tyr(3-tBu)][βAla]; lactam 2-C), the Kb in experiment [1] is 1 nM. The compound also returned an IC50 in experiment [2] of 1.2 nM.

For `CC(C)(C)c1cc(C[C@@H]2NC(=O)[C@@H](NC(=O)[C@@H](N)Cc3ccc(F)cc3)CCCCNC(=O)CCNC2=O)ccc1O` [Example 7, (2S,14S)-13-(2S-2-amino-3-(4-fluorophenyl)propylamino)-2-(3-tert-butyl-4-hydroxyphenylmethyl)-1,4,8-triaza-3,7,14-trioxocyclotetradecane] (H-[Phe(4-F)]K[Tyr(3-tBu)][βAla]; lactam 2-C), the Kb in experiment [1] is 10 nM. Besides, in experiment [2], the IC50 stood at 4.5 nM.

For the compound `CN(C(=O)[C@@H](N)Cc1ccccc1)[C@H]1CCCCNC(=O)CCNC(=O)[C@H](Cc2ccc(O)c(C(C)(C)C)c2)NC1=O` [Example 10, (2S-(2S,13S))-2-amino-N-(2-(3-tert-butyl-4-hydroxyphenylmethyl)-1,4,8-triaza-3,7,14-trioxocyclotetradec-13-yl)-3-phenyl-N-methylpropionamide] (H-F[NMeK][Tyr(3-tBu)][βAla]; lactam 2-C), the Kb in experiment [1] is 12.6 nM. This compound showed an IC50 in experiment [2] of 2.2 nM.

For the compound `CC(=O)N1CCCC[C@H](N(C)C(=O)[C@@H](N)Cc2ccc(F)cc2)C(=O)N[C@@H](Cc2ccc(O)c(C(C)(C)C)c2)C(=O)NCCC1` [Example 8, (2S-(2S.13S))-N-(8-acetyl-2-(3-tert-butyl-4-hydroxyphenylmethyl)-N-methyl-1,4,8-triaza-3,14-dioxocyclotetradec-13-yl)-2-amino-3-(4-fluorophenyl)propionamide], in experiment [1], the Kb was 6.31 nM. The same compound displayed an IC50 in experiment [2] of 0.84 nM.
